Experimental data as given in the NIST ThermoML archive (doi:10.1016/j.fluid.2014.05.043).

Assay: mn = molality of the nth substance listed, in mol/kg
Conditions: 101 kPa, Liquid; for molar conductivity: 293 K, Direct current cell with electrodes; for mass density: Vibrating tube method

CCCCCCCCCCCCCCCCCC(=O)O.NCCO [2-hydroxyethylammonium stearate] + O
Conditions | molar conductivity [S·m2/mol]
m1 = 2.77e-05 | 0.0501
m1 = 2.83e-05 | 0.0488
m1 = 2.89e-05 | 0.0477
m1 = 2.96e-05 | 0.0464
m1 = 3.03e-05 | 0.0452
m1 = 3.1e-05 | 0.044
m1 = 3.18e-05 | 0.0428
m1 = 3.26e-05 | 0.0415
m1 = 3.34e-05 | 0.0403
m1 = 3.43e-05 | 0.0392
m1 = 3.52e-05 | 0.0383
m1 = 3.61e-05 | 0.0371
m1 = 3.71e-05 | 0.0362
m1 = 3.82e-05 | 0.0347
m1 = 3.93e-05 | 0.0336
m1 = 4.05e-05 | 0.0323
m1 = 4.17e-05 | 0.0311
m1 = 4.31e-05 | 0.0297
m1 = 4.45e-05 | 0.0283
m1 = 4.6e-05 | 0.0271
m1 = 4.76e-05 | 0.0256
m1 = 4.94e-05 | 0.0241
m1 = 5.13e-05 | 0.0227
m1 = 5.33e-05 | 0.0214
m1 = 5.56e-05 | 0.0204
m1 = 5.81e-05 | 0.0194
m1 = 6.09e-05 | 0.0183
m1 = 6.38e-05 | 0.0172
m1 = 6.7e-05 | 0.0163
m1 = 7.07e-05 | 0.0153
m1 = 7.45e-05 | 0.0143

mass density [kg/m3]
Conditions | m1 = 5.8e-06 | m1 = 1.15e-05 | m1 = 1.73e-05 | m1 = 2.31e-05 | m1 = 2.89e-05
298.15 K | 996 | 994.86 | 997.03 | 996.95 | 997.02
303.15 K | 994.49 | 995.63 | 995.65 | 995.35 | 995.6
308.15 K | 990.78 | 994.03 | 993.99 | 993.62 | 993.99

O [water] + CCCCCCCCCCCCCCCCCC(=O)O.NCCO
m2 = 0
Conditions | mass density [kg/m3]
298.15 K | 996.06
303.15 K | 994.67
308.15 K | 993.01
